{
  "source": "patent US20190111040A1",
  "about": "“IN VIVO AMELIORATION OF ENDOGENOUS ANTI-TUMOR AUTOANTIBODIES TARGETING SURFACE TUMOR ANTIGENS VIA LOW-DOSE P4N” (THE JOHNS HOPKINS UNIVERSITY, priority 2016, published 2019)",
  "key": {"CT26 tumors [1]": {"system": "CT26 tumors", "assay": "P4N treatments in vivo, CT-26 tumors in nude mice", "design": "species or system nude mice (BALB/c/nu)", "conditions": "immunodeficient nude mice, one intratumoral injection of 2.5 mg/kg or 5 mg/kg", "procedure": "P4N treatments in vivo. BALB/c or BALB/c/nu mice (6 week old) were inoculated subcutaneously with 1×10^6 CT-26 cells in 100 μl PBS. When the average tumor mass reached 50 mm^3, the animals were treated with 2.5 mg/kg or 5 mg/kg of P4N in one intratumoral injection. Subsequently, the tumor volumes were measured using a caliper every 2 days, and the volumes were calculated using the following formula: volume (mm^3)=length×width×height. Before sacrifice, the sera of the mice were collected for experimental use."}, "Raji or OKT3 cells": {"system": "Raji or OKT3 cells", "assay": "Cell proliferation assay with THP-1-conditioned media", "format": "cell-based", "conditions": "conditioned medium from THP-1 cells treated with P4N, 48 h, MTT", "procedure": "FIGS. 5A-5F depict the expression of Activin A/BAFF induced by P4N treatments. (A) P4N induced Activin A or BAFF expression in human PBMCs as determined by RT-PCR. S1-S5 display different individual blood samples collected from 5 different human donors; N, no treatment; P, P4N-treatment (3 μM). The change in Activin A and BAFF expression (mean of 5 patients) relative to the control (NC) is plotted as a histogram (B) The effect of increasing dosages of P4N for 12 h on mRNA and protein levels of Activin A or BAFF in THP-1 cells was analyzed by RT-PCR and ELISA. (C) The effect of 6 μM P4N on mRNA and protein levels of Activin A or BAFF in THP-1 cells was determined at a different time period. (D) The effect of different inhibitors on Activin A-induced BAFF expression was examined. The expression of BAFF mRNA in inhibitor-treated THP-1 cells was determined by RT-PCR, and (E) BAFF protein secretion was measured by ELISA. (F) The effect of THP-1 conditioned media on the proliferation of Raji cells and OKT3 hybridoma cells were determined. Media were harvested, in which THP-1 cells were pre-treated without inhibitor (2) or with SB431542 (3), A83-01 (4), SIS3 (5), SB203580 (6) or PD98059 (7) and then treated with P4N for 12 h. The results are expressed as % viable cells relative to the control (NC, media from untreated THP-1 cells). All values are the means of triplicate samples±SEM. The significant differences in the results of inhibitor and P4N-treated groups compared with the untreated group are indicated by ***P<0.001.\nCell proliferation assay. Raji or OKT3 cells (1×10^4/well) were seeded and treated with THP-1-conditioned media. After 48 h the number of viable cells was determined by MTT assay. The indices of cell proliferation were calculated as previously described."}, "mouse splenocytes": {"system": "mouse splenocytes", "assay": "Effect of P4N on B cell lineage in mouse splenocytes in vitro", "format": "cell-based", "procedure": "The effect of P4N on changes in B cell lineage in vitro. Single cell suspensions of mouse splenocytes were obtained by grinding the spleens from healthy mice. The suspended splenocytes were treated with or without 0.1 or 0.2 μM of P4N for 48 h, and the percentage of naïve B cells, activated B cells, B1 cells or Breg cells were measured after staining with the following fluorochrome conjugates using flow cytometry (BD Biosciences): anti-CD19-FITC, anti-CD-23-APC, anti-CD-38-APC, anti-CD5-PE or anti-CD1d-Alexa 647 (BioLegend, San Diego, Calif.). The cell types were defined as follows: naïve B cells (CD19+CD23+), activated B cells (CD19+CD38+), B1 cells (CD19+CD5+) and Breg cells (CD19+CD5+CD1d+). The indices of different types of B cell proliferation were calculated as follows: (the number of splenocytes×the percentage of each B cell population in treated splenocytes)/(the number of splenocytes×the percentage of each B cell population in untreated splenocytes)."}, "CT-26 cells": {"system": "CT-26 cells", "assay": "Binding of anti-sera to CT-26 tumor tissue and cell surface antigens", "design": "species or system mouse", "conditions": "flow cytometry, FIG. 15", "procedure": "FIG. 15 is a graph showing the affinities of anti-sera against CT-26 cells after different lengths of incubation. Tumor antigens on the surface of CT26 cells were indirectly probed with P4N and PBS anti-sera and FITC-conjugated goat anti-mouse IgG antibody. The specific fluorescent activities were measured by flow cytometry.\nSections of CT-26 tumors from untreated mice were incubated with a 200-fold dilution of normal sera, PBS anti-sera or P4N anti-sera at 4° C. overnight. Sequentially, the sections were recognized using an HRP-conjugated anti-mouse IgG antibody (1:1500 dilution; Santa Cruz Biotechnology), and then developed, counterstained and photographed as described above.\nImmunofluorescence analysis of cell surface tumor antigens. CT-26 cells were seeded on glass cover slides, and fixed with 4% (w/w) paraformaldehyde The fixed cells were then incubated with normal sera, PBS anti-sera or P4N anti-sera for 1 h and detected with secondary antibodies conjugated to Alexa Fluor 568 (Molecular Probes, Eugene, USA). Alexa Fluor 488-conjugated Concanavalin A (ConA; Molecular Probes) and DAPI (Molecular Probes) were used to label the plasma membrane and nucleus. The images of tumor antigens recognized by the anti-sera were photographed at a 400× magnification using a Zeiss LSM 510 META confocal microscope (Carl Zeiss, Jena, Germany)."}, "CT26 tumors [2]": {"system": "CT26 tumors", "assay": "Immunohistochemical staining of tumors after P4N", "format": "in vivo, mice", "source_text": "Immunohistochemical staining. Tumors isolated from P4N and vehicle-treated mice were embedded in paraffin and thin sections were made and processed for immunohistochemical staining. The sections were probed with rat monoclonal anti-F4/80 (1:50 dilution; GeneTex, Irvine, Calif.) and anti-CD20 (1:200 dilution; Santa Cruz Biotechnology, Dallas, Tex.), hamster monoclonal anti-CD11c (1:25 dilution; GeneTex), rabbit monoclonal anti-CD3 (1:50 dilution; GeneTex), rabbit polyclonal anti-TNF-α and anti-IL-8 antibody (1:50 dilution; Assay BioTech. Sunnyvale, Calif.) at 4° C. overnight, and the detection antibodies were recognized using a horseradish peroxidase (HRP)-conjugated anti-rat, anti-hamster, or anti-rabbit IgG antibody (1/1,500 dilution; Santa Cruz Biotechnology). The immune complexes in the sections were visualized using the LSAB2 system (DAKO, Carpinteria, Calif.). The sections were counterstained with hematoxylin, mounted, observed under a light microscope at a magnification of 400×, and photographed."}},
  "note": "Structures can show the parent of a compound that is named as a salt.",
  "data": [
    {"molecule": "C[C@H](Cc1ccc(OCCN2CCCCC2)c(OCCN2CCCCC2)c1)[C@@H](C)Cc1ccc(OCCN2CCCCC2)c(OCCN2CCCCC2)c1", "note": "[P4N, meso-2,3-dimethyl-1,4-bis(3,4-[2-(piperidino)ethoxyphenyl])butane tetrakishydrochloride salt]", "values": [
      {"measurement": "growth of CT26 tumors", "setting": "CT26 tumors [1]", "value": "had no effect"},
      {"measurement": "proliferation of Raji or OKT3 cells", "setting": "Raji or OKT3 cells", "value": "increased the proliferation"},
      {"measurement": "total B cell proliferation in mouse splenocytes", "setting": "mouse splenocytes; 48 h", "value": "increased total B cell proliferation"},
      {"measurement": "number of activated B cells", "setting": "mouse splenocytes; absence of antigen stimulation", "value": "had no effect"},
      {"measurement": "binding affinities of EAA", "setting": "CT-26 cells", "value": "enhanced their binding affinities"},
      {"measurement": "expression levels of TNF-α and IL-8 in tumors", "setting": "CT26 tumors [2]; 5 mg/kg intratumoral, day 7, both strains of mice", "value": "enhanced the expression levels"},
      {"measurement": "infiltration of immune cells (macrophages, DC, T or B cells) into the tumor area", "setting": "CT26 tumors [2]; single intratumoral injection 5 mg/kg, day 7, IHC", "value": "led to the infiltration of immune cells"}
    ]}
  ]
}
